Measured values as given in BindingDB's records for doi:10.1021/acs.jmedchem.6b01247 (University of Chinese Academy of Sciences, 2016).

Assays:
[1] = Inhibition of Smo in mouse Shh Light2 cells assessed as inhibition of SAG-induced Hh pathway activity by measuring SAG-EC50 at 50 nM measured after 36 hrs by Gli-luciferase reporter gene assay (Rvb = 2.93 nM)
[2] = Inhibition of Smo in mouse Shh Light2 cells assessed as inhibition of SAG-induced Hh pathway activity by measuring SAG-EC50 at 100 nM measured after 36 hrs by Gli-luciferase reporter gene assay (Rvb = 2.93 nM)
[3] = Inhibition of Smo in mouse Shh Light2 cells assessed as inhibition of SAG-induced Hh pathway activity by measuring SAG-EC50 at 500 nM measured after 36 hrs by Gli-luciferase reporter gene assay (Rvb = 2.93 nM)

Compound: Cc1ccc2c(n1)[C@H]([C@@H](C)C(=O)Nc1ccc(Cl)c(-c3nc4ccccc4n3C)c1)CC[C@H]2C
- EC50 [1]: 24 nM
- EC50 [2]: 47 nM
- EC50 [3]: 137 nM
